ChEMBL document CHEMBL1201862, “PubChem BioAssay data set” (2004)
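How tested: cells in 96-well plates exposed to compound for 48 hours at five concentrations. At the GI50, growth is halved.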 The source made the active and inactive calls. Cut-off read from the data, not from the text of the source: active = GI50 up to about 1.1 µM and inactive = higher.

Legend:
Experiment in all cases: NCI anticancer screen, dose series, 48 h
786-0 = tested on: 786-0
A498 = tested on: A498
ACHN = tested on: ACHN
BT-549 = tested on: BT-549
CAKI-1 = tested on: CAKI-1
CCRF-CEM = tested on: CCRF-CEM
COLO 205 = tested on: COLO 205
DU-145 = tested on: DU-145
EKVX = tested on: EKVX
HCT-116 = tested on: HCT-116
HCT-15 = tested on: HCT-15
HL-60 = tested on: HL-60
HT-29 = tested on: HT-29
Hs-578T = tested on: Hs-578T
IGROV-1 = tested on: IGROV-1
K562 = tested on: K562
KM12 = tested on: KM12
LOX IMVI = tested on: LOX IMVI
M14 = tested on: M14
MCF7 = tested on: MCF7
MDA-MB-231 = tested on: MDA-MB-231
MDA-MB-435 = tested on: MDA-MB-435
MDA-N = tested on: MDA-N
MOLT-4 = tested on: MOLT-4
Malme-3M = tested on: Malme-3M
NCI-H226 = tested on: NCI-H226
NCI-H23 = tested on: NCI-H23
NCI/ADR-RES = tested on: NCI/ADR-RES
OVCAR-3 = tested on: OVCAR-3
OVCAR-5 = tested on: OVCAR-5
OVCAR-8 = tested on: OVCAR-8
PC-3 = tested on: PC-3
RPMI-8226 = tested on: RPMI-8226
RXF 393 = tested on: RXF 393
SF-268 = tested on: SF-268
SF-295 = tested on: SF-295
SF-539 = tested on: SF-539
SK-MEL-28 = tested on: SK-MEL-28
SK-MEL-2 = tested on: SK-MEL-2
SK-MEL-5 = tested on: SK-MEL-5
SK-OV-3 = tested on: SK-OV-3
SN12C = tested on: SN12C
SNB-19 = tested on: SNB-19
SNB-75 = tested on: SNB-75
SW-620 = tested on: SW-620
T47D = tested on: T47D
TK-10 = tested on: TK-10
U-251 = tested on: U-251
UACC-257 = tested on: UACC-257
UACC-62 = tested on: UACC-62
UO-31 = tested on: UO-31

CC1CC/C(=C\c2ccc(F)cc2)C(=O)/C1=C/c1ccc(F)cc1 (stereo unspecified)
GI50 (786-0): 2.9 µM (inactive) | GI50 (A498): 12.6 µM (inactive) | GI50 (ACHN): 4.15 µM (inactive) | GI50 (BT-549): 3.58 µM (inactive) | GI50 (CAKI-1): 3.85 µM (inactive) | GI50 (CCRF-CEM): 3.62 µM (inactive) | GI50 (COLO 205): 5.77 µM (inactive) | GI50 (DU-145): 4.07 µM (inactive) | GI50 (EKVX): 3.67 µM (inactive) | GI50 (HCT-116): 2.5 µM (inactive) | GI50 (HCT-15): 2.34 µM | GI50 (HL-60): 3.08 µM (inactive) | GI50 (HT-29): 2.92 µM (inactive) | GI50 (Hs-578T): 6.58 µM (inactive) | GI50 (IGROV-1): 3.04 µM (inactive) | GI50 (K562): 3.76 µM (inactive) | GI50 (KM12): 2.97 µM (inactive) | GI50 (LOX IMVI): 2.77 µM (inactive) | GI50 (M14): 6.76 µM (inactive) | GI50 (MCF7): 4.21 µM (inactive) | GI50 (MDA-MB-231): 2.66 µM (inactive) | GI50 (MDA-MB-435): 4.69 µM (inactive) | GI50 (MDA-N): 3.54 µM (inactive) | GI50 (MOLT-4): 3.02 µM (inactive) | GI50 (Malme-3M): 17.9 µM (inactive) | GI50 (NCI-H226): 7.03 µM (inactive) | GI50 (NCI-H23): 6.44 µM (inactive) | GI50 (NCI/ADR-RES): 2 µM (inactive) | GI50 (OVCAR-3): 5.7 µM (inactive) | GI50 (OVCAR-5): 4.13 µM (inactive) | GI50 (OVCAR-8): 2.7 µM (inactive) | GI50 (PC-3): 5.2 µM (inactive) | GI50 (RPMI-8226): 1.61 µM (inactive) | GI50 (RXF 393): 3.17 µM (inactive) | GI50 (SF-268): 3.6 µM (inactive) | GI50 (SF-295): 2.84 µM (inactive) | GI50 (SF-539): 3.68 µM (inactive) | GI50 (SK-MEL-28): 13.2 µM (inactive) | GI50 (SK-MEL-2): 4.83 µM (inactive) | GI50 (SK-MEL-5): 4.57 µM (inactive) | GI50 (SK-OV-3): 17.4 µM (inactive) | GI50 (SN12C): 3.22 µM (inactive) | GI50 (SNB-19): 10.1 µM (inactive) | GI50 (SNB-75): 2.04 µM (inactive) | GI50 (SW-620): 6.04 µM (inactive) | GI50 (T47D): 5.46 µM (inactive) | GI50 (TK-10): 3.85 µM (inactive) | GI50 (U-251): 4.95 µM (inactive) | GI50 (UACC-257): 15.7 µM (inactive) | GI50 (UACC-62): 11.6 µM (inactive) | GI50 (UO-31): 11.1 µM (inactive)
